Measurements: the NIST ThermoML archive (doi:10.1016/j.jct.2013.11.027)

How the values were obtained:
[1] = xn = mol fraction of the nth substance listed; conditions: 101 kPa, Liquid; for speed of sound: Sing-around technique in a fixed-path interferometer; for mass density: Vibrating tube method
[2] = refractive index (Na D-line) (dimensionless); xn = mol fraction of the nth substance listed; conditions: 101 kPa, Liquid, Standard Abbe refractometry

CCCCCCn1cc[n+](C)c1.F[B-](F)(F)F [1-hexyl-3-methylimidazolium tetrafluoroborate] + C1CCOC1
Conditions	mass density, 298.15 K [kg/m3]	mass density, 308.15 K [kg/m3]	mass density, 318.15 K [kg/m3]	refractive index, 298.15 K	refractive index, 308.15 K	refractive index, 318.15 K	speed of sound, 298.15 K [m/s]	speed of sound, 308.15 K [m/s]	speed of sound, 318.15 K [m/s]
[1], x1 = 0.0989	954.559	945.509	936.105	–	–	–	1306.3	1263.5	1221.2
[1], x1 = 0.2022	1005.23	996.175	987.171	–	–	–	1346.4	1308	1270.1
[1], x1 = 0.3014	1040.84	1032.56	1023.55	–	–	–	1379.6	1344.7	1310.1
[1], x1 = 0.3985	1066.08	1058.03	1049.53	–	–	–	1406.7	1374.4	1342.6
[1], x1 = 0.5109	1089.28	1081.23	1072.72	–	–	–	1431.3	1401.3	1371.8
[1], x1 = 0.5974	1103.2	1095.15	1087.75	–	–	–	1447	1418.5	1390.3
[1], x1 = 0.6974	1116.29	1109.24	1102.04	–	–	–	1462.8	1435.6	1408.7
[1], x1 = 0.8045	1128.3	1121.25	1114.44	–	–	–	1477.3	1451.1	1425.4
[1], x1 = 0.8865	1135.58	1128.53	1121.52	–	–	–	1486.9	1461.3	1436.2
[1], x1 = 1	1145.11	1137.71	1130.49	–	–	–	1496.7	1472	1447.7
[2], x1 = 0.0989	–	–	–	1.41416	1.41006	1.40595	–	–	–
[2], x1 = 0.2022	–	–	–	1.42016	1.41657	1.41275	–	–	–
[2], x1 = 0.3014	–	–	–	1.42373	1.42043	1.4171	–	–	–
[2], x1 = 0.3985	–	–	–	1.42607	1.42284	1.41964	–	–	–
[2], x1 = 0.5109	–	–	–	1.4279	1.42491	1.42175	–	–	–
[2], x1 = 0.5974	–	–	–	1.42888	1.42609	1.42305	–	–	–
[2], x1 = 0.6974	–	–	–	1.42974	1.427	1.42418	–	–	–
[2], x1 = 0.8045	–	–	–	1.4305	1.42774	1.42511	–	–	–
[2], x1 = 0.8865	–	–	–	1.43095	1.42822	1.42548	–	–	–
[2], x1 = 1	–	–	–	1.43167	1.4289	1.42612	–	–	–
